From PubChem BioAssay AID2474 (The Scripps Research Institute Molecular Screening Center, 2010) come the findings set out here.

A word on the IC50: it is the midpoint of a concentration-inhibition curve.

Each structure is given as a SMILES string.

The target in the test is Hepatitis C virus NS3 helicase. In words: HCV NS3 helicase inhibitor potency, late-stage follow-up, biochemical, fluorescence, dose response (AID 2474). Conditions: recombinant NS3 helicase, fluorescence unwinding assay.

As for `COc1cccc(-n2c(SCc3cc(=O)oc4cc(O)c(O)cc34)nc3ccccc3c2=O)c1`, the IC50 is 2880 nM.
Take `COc1ccc(C=NNC(=O)c2cc(O)c(O)c(O)c2)cc1COc1ccc(C(=O)OCC(C)C)cc1`: the IC50 was 9370 nM.
As to `Cc1cc(N2C(=O)C(O)=C(C(=O)c3ccc(C)o3)C2c2ccc(OCc3ccccc3)cc2)no1` (configuration not stated), the IC50 is 1470 nM.
Regarding `CCCCCOc1ccc(C2C(C(=O)c3ccc(C)o3)=C(O)C(=O)N2c2cc(C)on2)cc1` (configuration not stated), the IC50 was 1810 nM.
In the case of `COc1cc(C2C(C(=O)c3ccc(C)o3)=C(O)C(=O)N2c2cc(C)on2)ccc1OCc1ccccc1` (configuration not stated) it was 1630 nM; in that of `Cc1ccc(C(=O)C2=C(O)C(=O)N(Cc3ccco3)C2c2cccc(Cl)c2)o1` (configuration not stated), 6590 nM; in that of `CCOc1cccc(C2C(C(=O)c3ccc(C)o3)=C(O)C(=O)N2Cc2ccccc2)c1` (configuration not stated), 5290 nM.
